Data published in patent US4895835A, “Muramyl peptide derivatives and use thereof” (priority 1987, dated 1990).

Legend:
Meth A fibrosarcomas = test: Antitumour effect, Meth A fibrosarcoma; assay type: in vivo; conditions: BALB/C mouse; s.c. 0.2 ml mixture of Meth A cells (1×10^6 cells/ml) and compound (1,000 μg/ml); after 35 days
Description: Meth A fibrosarcomas were suspended in phosphate buffered physiological saline (1×10^6 cells/ml). Separately, a solution of a compound of the invention in physiological saline was prepared (1,000 μg/ml). An equivalent weight mixture of these two solution (0.2 ml) was subcutaneously injected into BALB/C mouse (20 mice per group). Survival rate after 35 days was measured.

[1] = system: influenza HA vaccine (A/Bangkok/10/83 strain, H1N1); test: Enhancing effect on influenza HA vaccine (adjuvant activity), ELISA; assay type: in vivo; conditions: CDF1 mouse, compound (100 μg/ml) mixed with influenza HA vaccine (100 CCA/ml)
Description: (3) Enhancing effect on influenza HA vaccine (adjuvant activity)
A compound of the invention was dissolved or suspended in physiological saline (100 μg/ml). Separately, influenza HA vaccine (A/Bangkok/10/83 strain, H1N1) was dissolved in physiological saline (100 CCA/ml). These two solutions were mixed in an equivalent weight to make the test solution. Control is a solution excluded the compound of the invention from the test solution.
The test solution was administered into CDF1 mouse in a similar way to that of the test of enhancing action for hepatitis vaccine as mentioned above, to obtain primary and secondary response sera.

[2] = Stimulation effect on antibody producing cells (plaque numbers, Cunningham technique); assay type: in vivo, ICR mouse; conditions: for Plaque No.: ICR mouse, SRBC i.v. and compound 500 μg/ml, 0.2 ml i.v., splenic cells after 4 days; for Stimulation index: plaque number relative to control (saline) = 1
Description: (5) Stimulation effect on anti-body precluding cells
A solution of sheep […] (SRBC) in phosphate buffered physiological saline (5×10^7 cells/ml), 0.2 ml was injected into tail intravenous vein of ICR mouse (7 mice per group). At the same time, a solution of a compound of the invention in physiological saline (500 μg/ml), 0.2 ml was similarly injected. After 4 days, lien was picked up from the treated mouse to obtain splenic cells. Plaque numbers were measured by Cunningham technique.

BCG killed vaccine = test: Enhancing action on BCG vaccine (adjuvant activity), 24 hours foot-pad test; assay type: in vivo; conditions: ICR mouse; s.c. 0.2 ml mixture of BCG killed vaccine (100 μg/ml) and compound in Freund's incomplete adjuvant (1000 μg/ml); tuberculin 10 μg after 14 days; measured after 24 hours
Description: (1) Enhancing action on BCG vaccine (adjuvant activity)
0.2 ml of an equivalent weight mixture of a solution of BCG killed vaccine in physiological saline (100 μg/ml) and a solution of a compound of the invention in Freund's incomplete adjuvant (1000 μg/ml) was subcutaneously injected to the back of ICR mouse (one group consisting of 7 mice). After 14 days, 10 μg of tuberculin was intradermally injected into the hind foot-pad. Swelling of the foot-pad was measured after 24 hours (24 hours foot-pad test).
The control is the above mentioned mixture excluded a compound of the invention.

E. coli (JC-2) = test: Phylactic effect, E. coli infection; assay type: in vivo; conditions: ICR mouse; compound 500 μg/ml, 0.2 ml i.p. one day before infection i.p. 1×10^7 /mouse; after 7 days of infection
Description: (§1) A solution of a compound of the invention in physiological saline (500 μg/ml), 0.2 ml was intraperitoneally injected into ICR mouse (20 mice per group). After a day, E. coli (JC-2) and Psud. aeruginosa (NCTC 10490) were incubated through intraperitoneal route so as to be at concentration of 1×10^7 /mouse. Survival rate after 7 days of infection was measured.

[3] = system: B type hepatitis vaccine (HBs); test: Enhancing effect on hepatitis vaccine (adjuvant activity), IgG antibody by ELISA; assay type: in vivo; conditions: CDF1 mouse; for Anti HBs-ELISA unit, Primary response serum: i.p. 0.2 ml compound (100 μg/ml) mixed with HBs vaccine, serum at 3 weeks; for Anti HBs-ELISA unit, Secondary response serum: second i.p. injection of 0.2 ml test solution, serum at 2 weeks
Description: (2) Enhancing effect on hepatitis vaccine (adjuvant activity)
A compound of the invention was dissolved or suspended in physiological saline (100 μg/ml), and mixed with a solution of B type hepatitis vaccine (HBs) in physiological saline (100 μg/m) at an equivalent weight ratio to obtain the test solution. A solution excluded the compound of the invention from the test solution was used as control.
The test solution (0.2 ml) was intraperitoneally injected into CDF1 mouse (one group consisting of 10 mice). At 3 weeks after the administration, a blood was taken from the intravenous vein in eyeground of each the mice and centrifuged to obtain serum (primary response serum). Further, 0.2 ml of the test solution was again intraperitoneally injected into each mice, and at 2 weeks stage, serum was separated in the similar way (secondary response serum).
Value for IgG antibody against B type hepatitis virus of the resulting serum was measured by ELISA method.

[4] = system: Psud. aeruginosa (NCTC 10490); test: Phylactic effect, Psud. aeruginosa infection; assay type: in vivo; conditions: ICR mouse; compound 500 μg/ml, 0.2 ml i.p. one day before infection i.p. 1×10^7 /mouse; after 7 days of infection
Description: as §1

[5] = system: leukemia cells of L-1210 mouse; test: Activation for macrophages: cytostatic rate of intraperitoneal macrophages on leukemia cells; assay type: in vivo; conditions: CDF1 mouse i.p. 500 μg/ml, 0.2 ml; macrophages collected after 4 days; macrophages:L-1210 cells 20:1; 72 hours
Description: (4) Activation for macrophages
A test solution of a compound of the invention in physicological saline (500 μg/ml, 0.2 ml) was intraperioneally injected into CDF1 mouse (one group consisting of mice). Intraperioneal macrophages which were collected after 4 days and leukemia cells of L-1210 mouse were mixed at the cell ratio of 20 and 1. Each 200 μl of the mixture was put on a microplate having 96 holes. After 72 hours, numbers of cells in each holes were counted, and cytostatic rate of the mixture was measured.

Row | Compound | Survival rate (Meth A fibrosarcomas) | Anti-influenza HA virus ELISA unit, Primary response serum [1] | Anti-influenza HA virus ELISA unit, Secondary response serum [1] | Plaque No. [2] | Stimulation index [2] | Swelling of Foot-pad (BCG killed vaccine) | Survival rate, E. coli (E. coli (JC-2)) | Anti HBs-ELISA unit, Primary response serum [3] | Anti HBs-ELISA unit, Secondary response serum [3] | Survival rate, Psud. aeruginosa [4] | Cytostatic rate [5]
1 | CCCCCCCCCCCCCCCC(=O)O[C@H](CCCCCCCCCCC)CC(=O)OC[C@H]1O[C@@H](S)[C@H](NC(C)=O)[C@@H](O[C@H](C)C(=O)N[C@@H](C)C(=O)N[C@H](CCC(=O)OC)C(N)=O)[C@@H]1O [Example 9, N-[[2-O-{2-Acetamido-2,3-dideoxy-6-O-[(3R)-3-hexadodecanoyloxytetradecanoyl]-1-thio-β-D-glucopyranos-3-yl}-D-lactoyl]]-L-alanyl-D-isoglutamine methyl ester] | 5% | 1,900 ELISA unit | 25,000 ELISA unit | 11.00 ± 10.1 × 10^3 | 2.3 | 49.1 ± 12.0 × 0.01 mm | 40% | 3,400 ELISA unit | 150,000 ELISA unit | 15% | 38.2 ± 2.2%
2 | CCCCCCCCCCCCCC(=O)O[C@H](CCCCCCCCCCC)CC(=O)OC[C@H]1OC(O)[C@H](NC(C)=O)[C@@H](O[C@H](C)C(=O)N[C@@H](C)C(=O)N[C@H](CCC(=O)OC)C(N)=O)[C@@H]1O (stereo partly drawn) [Example 2, N-[[2-O-{2-Acetamido-2,3-dideoxy-6-O-[(3R)-3-tetradecanoyloxytetradecanoyl]-D-glucopyranos-3-yl}-D-lactoyl]]-L-alanyl-D-isoglutamine methyl ester] | 30% | 3,100 ELISA unit | 33,000 ELISA unit | 8.23 ± 7.2 × 10^3 | 1.7 | 57.4 ± 16.3 × 0.01 mm | 55% | 6,000 ELISA unit | 195,000 ELISA unit | 45% | 45.2 ± 1.1%
3 | CCCCCCCCCCCCCCCC(=O)O[C@H](CCCCCCCCCCC)CC(=O)OC[C@H]1OC[C@H](NC(C)=O)[C@@H](O[C@H](C)C(=O)N[C@@H](C)C(=O)N[C@H](CCC(=O)OC)C(N)=O)[C@@H]1O [Example 6] | 30% | 2,500 ELISA unit | 30,000 ELISA unit | 6.81 ± 4.8 × 10^3 | 1.4 | 86.4 ± 22.1 × 0.01 mm | 60% | 6,200 ELISA unit | 220,000 ELISA unit | 50% | 42.6 ± 3.2%
